Data on six compounds can be found in patent US8497245B2, “Trypsin-like serine protease inhibitors, their preparation and use as selective inhibitors of the clotting factors IIa and Xa” (The Medicines Company (Leipzig) GmbH, priority 2010, dated 2013).

pKi: −log10 of the molar value. Structures can show the parent of a compound that is named as a salt.

The pKi is −log10 of the Ki, conventionally taken in molar units.

Test [1] concerns the target T1, Human urinary kallikrein (h uKK) (Homo sapiens, UniProt P06870).
T1 construct: purchased Lee Biosolutions
As to the kind of experiment: Inhibition of human urinary kallikrein (reference enzyme). Type of test: biochemical. Particulars: S-2266 substrate. A digest of the protocol: (§1)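 Abs 405 nm (p-NA release from chromogenic substrate) with purified enzyme; equilibrium rates fit to competitive-inhibition equation → Ki, nM; mean of ≥3 runs.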

In test [2] the target is T2, Subcomponent "s" of Human Complement Component 1 (h C1s) (Homo sapiens, UniProt P09871).
T2 construct: purchased Calbiochem
T2 sequence (P09871 438-688 limits assumed): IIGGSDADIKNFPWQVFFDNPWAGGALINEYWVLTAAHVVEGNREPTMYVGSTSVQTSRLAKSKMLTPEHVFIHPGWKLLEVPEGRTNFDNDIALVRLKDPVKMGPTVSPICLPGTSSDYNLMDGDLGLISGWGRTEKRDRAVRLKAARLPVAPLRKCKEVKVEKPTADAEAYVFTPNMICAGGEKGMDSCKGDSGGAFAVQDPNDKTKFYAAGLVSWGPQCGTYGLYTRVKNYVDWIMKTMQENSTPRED
T2 sequence (P09871 16-437 partner limits assumed): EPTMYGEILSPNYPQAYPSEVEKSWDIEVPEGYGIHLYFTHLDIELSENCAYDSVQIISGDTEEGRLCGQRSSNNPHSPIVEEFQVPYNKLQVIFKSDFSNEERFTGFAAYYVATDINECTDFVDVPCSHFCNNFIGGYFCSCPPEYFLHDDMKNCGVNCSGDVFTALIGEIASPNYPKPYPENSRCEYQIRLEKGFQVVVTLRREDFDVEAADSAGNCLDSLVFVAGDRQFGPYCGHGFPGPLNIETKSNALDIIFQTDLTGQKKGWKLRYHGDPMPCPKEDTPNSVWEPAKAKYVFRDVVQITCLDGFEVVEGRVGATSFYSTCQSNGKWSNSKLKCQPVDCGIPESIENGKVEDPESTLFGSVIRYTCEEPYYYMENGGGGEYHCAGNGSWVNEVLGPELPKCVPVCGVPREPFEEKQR
As to the kind of experiment: Inhibition of human C1s (reference enzyme). Type of test: biochemical. The note with it: S-2314 substrate; read-out: Ki h Cls. An outline of the steps:
as §1

The next test deals with T3, human Factor Xa (Homo sapiens, UniProt P00742).
T3 construct: human Factor Xa from Enzyme Research Laboratories; purchased Enzyme Research Laboratories
The test can be described thus: Inhibition constants for human factor Xa, chromogenic substrate assay. Type of test: biochemical. Particulars: 25° C., Pefachrome FXa substrate, average of at least three determinations; read-out: Ki h FXa. A digest of the protocol: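 Absorbance at 405 nm tracked p-nitroaniline liberated by each purified enzyme (human thrombin or human factor Xa) in pH 8.0 TBS containing 0.154 M NaCl and 2% ethanol. Equilibrium rates were fitted by competitive-inhibition kinetics to give Ki; values are means of ≥3 runs.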

The target in test [3] is T4, Human Activated Protein C (h aPC) (Homo sapiens, UniProt P04070).
T4 construct: purchased Enzyme Research Laboratories
The test can be described thus: Inhibition of human activated protein C (reference enzyme). The note with it: Pefachrome PCa substrate. Type of test: biochemical. An outline of the steps: as §1

Test [4] has as its target T5, human factor IIa (human alpha-thrombin) (Homo sapiens, UniProt P00734).
T5 construct: human alpha-thrombin from Enzyme Research Laboratories; purchased Enzyme Research Laboratories
As to the kind of experiment: Inhibition constants for human factor IIa, chromogenic substrate assay. Type of test: biochemical. Particulars: 25° C., Pefachrome tPA substrate, average of at least three determinations; read-out: Ki h FIIa. A digest of the protocol: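 Inhibitor/enzyme dissociation constants reflect competitive-model fits of equilibrium rates, averaged over at least three determinations. Rates were taken from the absorbance change at 405 nm as p-nitroaniline was cleaved from substrate by purified thrombin or factor Xa in 0.05 M Tris buffer, pH 8.0.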

The target of test [5] is T6, Subcomponent "r" of Human Complement Component 1 (h C1r) (Homo sapiens, UniProt P00736).
T6 construct: purchased Calbiochem
T6 sequence (P00736 464-705 limits assumed): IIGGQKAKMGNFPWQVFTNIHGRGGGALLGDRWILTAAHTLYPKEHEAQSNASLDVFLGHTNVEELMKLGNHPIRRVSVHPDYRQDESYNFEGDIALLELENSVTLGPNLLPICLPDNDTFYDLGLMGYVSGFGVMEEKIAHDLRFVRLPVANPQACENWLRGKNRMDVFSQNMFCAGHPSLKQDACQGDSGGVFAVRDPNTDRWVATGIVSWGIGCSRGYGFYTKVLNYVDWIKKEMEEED
T6 sequence (P00736 18-463 partner limits assumed): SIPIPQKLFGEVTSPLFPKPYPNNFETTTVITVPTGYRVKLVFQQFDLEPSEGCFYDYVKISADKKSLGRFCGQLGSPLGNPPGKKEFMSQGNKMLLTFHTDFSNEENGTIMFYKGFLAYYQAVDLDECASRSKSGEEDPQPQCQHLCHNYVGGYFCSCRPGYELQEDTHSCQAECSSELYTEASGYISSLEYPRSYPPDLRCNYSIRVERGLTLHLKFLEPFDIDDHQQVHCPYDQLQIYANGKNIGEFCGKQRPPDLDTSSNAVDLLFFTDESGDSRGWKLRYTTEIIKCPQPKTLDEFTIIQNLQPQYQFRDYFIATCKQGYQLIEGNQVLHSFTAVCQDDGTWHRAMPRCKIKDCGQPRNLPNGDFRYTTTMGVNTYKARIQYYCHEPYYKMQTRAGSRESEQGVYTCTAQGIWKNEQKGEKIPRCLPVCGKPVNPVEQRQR
The test can be described thus: Inhibition of human C1r (reference enzyme). Type of test: biochemical. The note with it: S-2314 substrate; read-out: Ki h Clr. An outline of the steps:
as §1

Test [6] concerns the target T7, Human plasma kallikrein (h PK) (Homo sapiens, UniProt P03952).
T7 construct: purchased Enzyme Research Laboratories
As to the kind of experiment: Inhibition of human plasma kallikrein (reference enzyme). Type of test: biochemical. The note with it: S2302 substrate. An outline of the steps: as §1

For test [7], the target named is T8, Human urokinase type plasminogen activator (h u-PA) (Homo sapiens, UniProt P00749).
T8 construct: purchased MEDAC GmbH Urokinase HS medac
The test can be described thus: Inhibition of human urokinase type plasminogen activator (reference enzyme). Type of test: biochemical. The note with it: H-Glu-Gly-Arg-pNA substrate. A digest of the protocol: as §1

The target of test [8] is T9, Human tissue-type plasminogen activator (h t-PA) (Homo sapiens, UniProt P00750).
T9 construct: purchased Boehringer Ingelheim Actilyse
As to the kind of experiment: Inhibition of human tissue-type plasminogen activator (reference enzyme). Particulars: Pefachrome tPA substrate; read-out: Ki h t-PA. Type of test: biochemical. The protocol: The equilibrium rates were used to calculate the inhibitor/enzyme dissociation constant (Ki values) by parameter fitting in accordance with the rate equation for competitive inhibition using GraFit (version 4 from Erithacus).
Dissociation constants were calculated as described herein.

In test [9] the target is T10, Human plasmin (h plasmin) (Homo sapiens, UniProt P00747).
T10 construct: purchased Calbiochem
The test can be described thus: Inhibition of human plasmin (reference enzyme). Type of test: biochemical. The note with it: Chromozym PL substrate. A digest of the protocol:
as §1

Another test relates to thrombin and FXa. The note with it: literature value; cited from earlier work.

T10 sequence (P00747 581-810 limits assumed): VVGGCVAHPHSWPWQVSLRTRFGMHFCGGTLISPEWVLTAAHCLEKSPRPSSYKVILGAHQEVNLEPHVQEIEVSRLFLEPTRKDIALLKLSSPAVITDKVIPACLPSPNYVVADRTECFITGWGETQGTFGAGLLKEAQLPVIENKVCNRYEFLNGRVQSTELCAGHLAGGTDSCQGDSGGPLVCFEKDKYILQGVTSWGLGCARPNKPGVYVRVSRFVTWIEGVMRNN
T10 sequence (P00747 97-580 partner limits assumed): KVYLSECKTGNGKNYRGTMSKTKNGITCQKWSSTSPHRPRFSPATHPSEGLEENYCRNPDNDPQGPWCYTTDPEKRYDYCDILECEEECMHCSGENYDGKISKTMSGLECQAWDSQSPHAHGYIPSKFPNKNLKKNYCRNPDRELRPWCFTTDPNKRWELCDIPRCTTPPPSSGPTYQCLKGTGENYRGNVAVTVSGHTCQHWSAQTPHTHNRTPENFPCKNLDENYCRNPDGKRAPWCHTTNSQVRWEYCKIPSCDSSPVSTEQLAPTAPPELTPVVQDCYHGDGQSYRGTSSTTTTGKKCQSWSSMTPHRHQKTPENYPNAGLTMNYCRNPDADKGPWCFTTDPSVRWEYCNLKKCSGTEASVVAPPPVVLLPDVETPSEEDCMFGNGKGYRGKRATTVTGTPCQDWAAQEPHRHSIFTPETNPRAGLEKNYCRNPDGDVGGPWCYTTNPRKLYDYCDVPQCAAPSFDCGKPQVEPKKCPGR
T7 sequence (P03952 391-638 limits assumed): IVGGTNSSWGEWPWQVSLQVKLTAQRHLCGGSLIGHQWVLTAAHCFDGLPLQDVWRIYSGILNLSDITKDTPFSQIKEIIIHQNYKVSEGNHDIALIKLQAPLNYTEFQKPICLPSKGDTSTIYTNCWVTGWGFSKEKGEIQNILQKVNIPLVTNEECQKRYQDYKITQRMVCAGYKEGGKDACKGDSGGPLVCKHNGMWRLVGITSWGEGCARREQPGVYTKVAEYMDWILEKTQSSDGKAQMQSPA
T7 sequence (P03952 20-390 partner limits assumed): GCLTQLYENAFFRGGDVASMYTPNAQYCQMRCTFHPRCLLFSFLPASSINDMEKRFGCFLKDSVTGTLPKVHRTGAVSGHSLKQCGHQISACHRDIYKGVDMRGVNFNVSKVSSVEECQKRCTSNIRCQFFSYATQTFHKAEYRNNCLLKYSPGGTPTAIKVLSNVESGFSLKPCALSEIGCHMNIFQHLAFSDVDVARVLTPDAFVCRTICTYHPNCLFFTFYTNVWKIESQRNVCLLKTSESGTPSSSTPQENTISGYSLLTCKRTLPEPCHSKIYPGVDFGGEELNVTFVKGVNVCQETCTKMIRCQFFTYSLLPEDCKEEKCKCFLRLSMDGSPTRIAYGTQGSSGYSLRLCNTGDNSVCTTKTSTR
T3 sequence (P00742 235-488 limits assumed): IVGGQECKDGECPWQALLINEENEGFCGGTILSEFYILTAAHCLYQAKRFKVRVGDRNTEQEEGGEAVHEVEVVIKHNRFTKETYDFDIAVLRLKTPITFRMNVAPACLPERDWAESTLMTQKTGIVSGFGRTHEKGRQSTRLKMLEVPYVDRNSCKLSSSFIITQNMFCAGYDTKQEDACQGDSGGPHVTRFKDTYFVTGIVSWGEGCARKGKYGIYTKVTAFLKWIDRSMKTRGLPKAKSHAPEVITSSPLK
T3 sequence (P00742 41-179 partner limits assumed): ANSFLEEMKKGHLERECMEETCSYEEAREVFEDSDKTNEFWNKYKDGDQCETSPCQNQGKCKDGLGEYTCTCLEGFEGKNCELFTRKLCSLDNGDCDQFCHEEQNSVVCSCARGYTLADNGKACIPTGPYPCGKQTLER
T1 sequence (P06870 25-262): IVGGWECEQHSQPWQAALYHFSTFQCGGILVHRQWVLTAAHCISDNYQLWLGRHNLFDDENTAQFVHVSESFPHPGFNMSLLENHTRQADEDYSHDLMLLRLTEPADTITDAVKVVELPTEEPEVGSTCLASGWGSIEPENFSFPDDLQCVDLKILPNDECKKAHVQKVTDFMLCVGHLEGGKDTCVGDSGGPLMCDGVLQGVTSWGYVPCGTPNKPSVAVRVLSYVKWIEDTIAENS
T4 sequence (P04070 212-450 limits assumed): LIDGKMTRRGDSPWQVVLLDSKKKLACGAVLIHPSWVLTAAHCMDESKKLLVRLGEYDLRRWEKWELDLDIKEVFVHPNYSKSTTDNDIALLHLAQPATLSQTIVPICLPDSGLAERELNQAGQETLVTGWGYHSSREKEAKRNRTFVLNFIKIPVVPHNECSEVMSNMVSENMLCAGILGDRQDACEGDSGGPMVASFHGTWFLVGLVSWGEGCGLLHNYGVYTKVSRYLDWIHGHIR
T4 sequence (P04070 43-197 partner limits assumed): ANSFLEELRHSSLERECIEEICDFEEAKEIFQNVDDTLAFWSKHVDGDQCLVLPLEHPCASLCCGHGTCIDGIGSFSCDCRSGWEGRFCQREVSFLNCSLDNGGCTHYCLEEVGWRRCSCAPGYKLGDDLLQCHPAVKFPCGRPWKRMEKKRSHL
T9 sequence (P00750 36-562): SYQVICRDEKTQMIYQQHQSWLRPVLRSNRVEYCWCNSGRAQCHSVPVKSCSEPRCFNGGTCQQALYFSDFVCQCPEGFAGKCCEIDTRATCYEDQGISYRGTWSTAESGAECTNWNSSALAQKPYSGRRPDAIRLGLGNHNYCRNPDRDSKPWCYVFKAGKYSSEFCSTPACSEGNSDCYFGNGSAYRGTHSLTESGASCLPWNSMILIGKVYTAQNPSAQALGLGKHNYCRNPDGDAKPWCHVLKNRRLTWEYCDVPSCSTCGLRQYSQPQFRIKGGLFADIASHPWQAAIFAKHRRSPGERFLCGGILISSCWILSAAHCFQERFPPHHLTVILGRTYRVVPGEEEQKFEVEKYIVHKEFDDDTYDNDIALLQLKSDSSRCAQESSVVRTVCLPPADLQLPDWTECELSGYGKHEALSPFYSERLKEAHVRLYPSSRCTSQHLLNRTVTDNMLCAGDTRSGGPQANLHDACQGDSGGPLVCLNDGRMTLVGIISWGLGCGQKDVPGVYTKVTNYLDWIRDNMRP

As for `NCc1ccc(Cl)cc1CNC(=O)[C@@H]1CCCN1C(=O)[C@@H](CC(=O)O)NS(=O)(=O)Cc1ccccc1` [Compound 2.46], the pKi was below 4.70 in [1]; below 4.30 in test [2]; 5.88 on human Factor Xa; below 4.40 in test [3]; 7.91 in test [4]; below 4.00 in test [5]. Also, the pKi was below 4.30 in test [6], below 4.30 in [7], below 4.30 in test [8] and below 5.00 in test [9].
Take `CN(CC1CCOCC1)C(=O)C[C@@H](NS(=O)(=O)Cc1ccccc1)C(=O)N1CCC[C@H]1C(=O)NCc1cc(Cl)ccc1CN` [Compound 2.47, Bzls-D-Asp((tetrahydro-2H-pyran-4-yl)-N-methylmethanamine)-L-Pro-Amb(2-AMe-5-Cl)×2 TFA]: the pKi in test [1] was below 4.70; in test [2], below 4.00; on human Factor Xa, 8.70; in test [3], below 4.00; in [4], 9.49; in test [5], below 5.00. Further, the pKi was 6.52 in [6], below 4.00 in test [7], below 4.30 in test [8] and below 4.82 in test [9].
`NCc1ccc(Cl)cc1CNC(=O)[C@@H]1CCCN1C(=O)[C@H](N)CCC(=O)N1CCOCC1` [Compound 2.49, H-D-Glu(morpholino)-L-Pro-Amb(2-AMe-5-Cl)×2 TFA]: the negative-log Ki (pKi) in [1] is below 4.00; in [2], below 4.00; at human Factor Xa, 6.87; in [3], below 5.00; in test [4], 8.10; in test [5] it was below 5.00. Further, the negative-log Ki (pKi) in [6] is below 5.00; in test [7] it was below 4.00; in [8], below 4.00; in [9], below 4.00.
With `NCc1ccc(Cl)cc1CNC(=O)[C@@H]1CCN1C(=O)[C@@H](CC(=O)N1CCNCC1)NS(=O)(=O)Cc1ccccc1` [Compound 2.50, Bzls-D-Asp(piperazinyl)-L-Aze-Amb(2-AMe-5-Cl)×2 TFA], the negative logarithm of the Ki (pKi) in test [1] is below 4.00; in [2], below 4.00; at human Factor Xa it was 8.28; in [3], below 4.00; in [4] it was 7.85; in test [5], below 4.00. Further, the negative logarithm of the Ki (pKi) is 5.48 in test [6], below 4.60 in test [7], below 4.70 in test [8] and below 4.82 in test [9].
For `Cc1cccc(S(=O)(=O)Nc2ccc(C)n(CC(=O)NCCON=C(N)N)c2=O)c1` [RWJ445167], the FXa/thrombin ratio in the test on thrombin and FXa is below 0.02.
In the case of `Cn1c(CNc2ccc(C(=N)N)cc2)nc2cc([C@@](C)(NCC(=O)O)C(=O)N3CCCC3)ccc21` [Tanogitran], the FXa/thrombin ratio with thrombin and FXa is 0.1.
